Source: patent US20240109914A1, “IMIDAZOTHIAZOLE COMPOUNDS AND ANALOGS THEREOF AND METHODS FOR TREATING NEMATODE INFECTIONS IN PLANTS” (The Governing Council of The University of Toronto, priority 2021, published 2024)
Where two headings read alike, the source gives them in different places.

Assays:
M. chitwoodi J2 larvae = experiment: Meloidogyne chitwoodi in vitro larval mobility assay; format: in vivo; conditions: 2 days, average of three replicates; for pest or weed control at 45 µM: Meloidogyne chitwoodi, 48 h, read-out: % Immobile
Protocol: M. chitwoodi race 1 (the strain commonly found in the pacific northwest of the United States) was used for all experiments, and was maintained on tomato plants (Solanum lycopersicum ‘Rutgers’) as previously described^47. The microwell dose-response experiments were carried out similarly to previously described protocols^44,46. […] The chemicals were tested at 45 μM, and the final concentration of DMSO in each well was 0.5% (v/v). The wells were covered with a plastic adhesive strip, and the lids of the plates were sealed with parafilm. The plates were incubated at 25° C. for 2 days. The percent of worms that were immobile (% immobile) was quantified by counting the number of immobile worms after 2 days of incubation, dividing the number of immobile worms by the total number of worms in the well, and then multiplying by 100. […] The average % immobile value was calculated across the three replicates.

M. hapla eggs = experiment: Meloidogyne hapla in vitro egg hatch assay; format: in vivo; conditions: 45 μM; for Number of Hatched Eggs: 8 days at room temperature, about 90 eggs per well, tested once; for Number of Hatched Eggs z-score: 8 days, z-score vs 8 untreated DMSO wells
Method in brief: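 About 90 eggs per well, freed from carrot-root egg masses with 10% bleach for 4 min, were exposed in deionized water to 0.5 μL compound or DMSO. Hatched eggs were counted after 8 days at room temperature without shaking in humid conditions. Each treatment was tested once, with z-scores calculated from 8 untreated DMSO control wells.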

M. incognita J2 larvae = experiment: Meloidogyne incognita in vitro larval mobility assay; format: in vivo; conditions: 45 μM, 4 days; for Replicate 1 z-score / Replicate 2 z-score: z-score vs untreated DMSO wells; for pest or weed control at 45 µM: Meloidogyne incognita, 96 h
Method in brief: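 Infective J2 juveniles of M. incognita Race 1, about 35 per well, were exposed to compound at 45 μM in deionized water with 0.5% DMSO for 4 days at 25° C without shaking. Immobile worms were counted as % of total, averaged over two replicates. A z-score against DMSO control wells was also computed, with z > 1.645 in both replicates marking a hit.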

C. elegans = C. elegans dose-response (viability, minimum lethal concentration); format: in vivo, Caenorhabditis elegans
Protocol: Forty microliters of an HB101 E. coli bacterial suspension in liquid NGM (nematode growth media—see ref. 42 for the recipe) was added to each well of a 96-well flat-bottom culture plate, after which approximately 25 synchronized L1 worms, in 10 μl of M9 buffer (see ref. 43 for the recipe), were added to each well. The synchronized L1 worms were obtained from an embryo preparation performed the previous day (see ref. 43 for the protocol). For the L1 assays, 0.5 μl of test compound solution (or DMSO alone) was immediately added to the wells using a multichannel pipette; the final DMSO concentration is 1% (v/v). The worms were incubated for 3 days at 20° C. and the number of viable animals was counted.
At least three biological replicates were performed for each dose-response assay. For each biological replicate, two technical replicates were performed and the numbers of viable animals for each technical replicate were combined (i.e. ˜ 50 worms assayed per concentration). The number of viable worms at each concentration was divided by the corresponding DMSO control value to give the “relative viability” for each concentration. The “relative viability” values were then averaged across the biological replicates. Minimum lethal concentration was defined as the lowest concentration at which at least 20% of worms die.

M. incognita = experiment: Meloidogyne incognita infectivity assay (soil, tomato roots); format: in vivo; conditions: 45 μM in soil, 8 weeks, eggs per mg root relative to DMSO control; for pest or weed control at 45 µM: Meloidogyne incognita, 1344 h, read-out: % effectiveness at inhibiting reproduction of M. incognita
Description: An M. incognita population originally collected from grape (Vitis vinifera) in Parlier, California, was used for all experiments, and they were maintained on tomato plants (Solanum lycopersicum ‘Rutgers’) as previously described^47. Infective J2 juveniles were collected as described in ref. 47.

tomato plants = experiment: Root mass of tomato plants in the soil infectivity assay; conditions: 45 μM in soil, 8 weeks
Protocol: For the infectivity assays, 90 grams of soil (1:1 sand:loam mix) was added to each cell of several 6-cell plastic garden packs. The soil was drenched with 18 mL of deionized water containing dissolved test compound or DMSO alone. 2,500 infective J2 juveniles were then added to the soil in 2 mL of deionized water, for a total water volume of 20 mL. […] The DMSO concentration varied from 0.1% to 0.8% (v/v) depending on the stock concentration of the test compound. The highest DMSO concentration was used as the DMSO control. The J2s were incubated in the soil and chemical for 24 hours, after which two- to three-week old tomato seedlings were transplanted into the soil (one plant per cell). Two replicates were performed for each chemical treatment, and four replicates were done for the DMSO controls. The whole experiment was replicated twice, in two different batches on two different days, for a total of four replicates for each test compound treatment, and eight replicates for the DMSO controls. Inoculated plants were grown for 8 weeks in a greenhouse, as described^47, under long-day conditions (16-h photoperiod) with 26/18° C. day/night temperatures. After 8 weeks, the plants were destructively harvested. The tops were removed and discarded, and roots were gently washed with water to remove adhering soil. Eggs were extracted by placing rinsed roots in 0.6% sodium hypochlorite and agitating at 300 rpm for 3 min. Roots were then rinsed over nested 250—and 25.4-μm sieves, with eggs collected from the latter and suspended in water. Roots were dried in a 65° C. oven for at least 24 hours, after which dry roots were weighed. The number of eggs from each plant root was counted on a dissection microscope using a haemocytometer, and the number of eggs per milligram of root was calculated by dividing the total egg number by the mass of the dried root material. An average was taken across the replicates performed on the same day, and then normalized to the DMSO control average. […] An average percent effectiveness value was then calculated across the two different batches carried out on different days.

M. chitwoodi = experiment: Meloidogyne chitwoodi infectivity assay (soil, tomato roots); format: in vivo; conditions: 45 μM in soil, 8 weeks, egg counts relative to DMSO control
Protocol: M. chitwoodi race 1 (the strain commonly found in the pacific northwest of the United States) was used for all experiments, and was maintained on tomato plants (Solanum lycopersicum ‘Rutgers’) as previously described^47. The M. chitwoodi infectivity assays were performed identically to the M. incognita infectivity assays (see above), with the exception that egg counts were not normalized to the mass of the roots. Four technical replicates were performed in a single batch.

HepG2 cells = experiment: HepG2 cell proliferation assay; format: cell-based, human; conditions: 72 hours, Alamar Blue, cell proliferation
Protocol: HepG2 cells, which are liver-derived, were counted using a haemocytometer, diluted, and seeded in […] to a final density of 5×10^4 cells/mL in 100 uL of RPMI-1640 medium supplemented with 10% heat inactivated fetal bovine serum (Gibco) and 1.2× Antibiotic-Antimycotic (Gibco). Cells were incubated at 37° C. with 5% CO2 for 24 hours. Subsequently, a 2-fold dilution series of test compound was added to cells at a final volume of 200 uL and incubated at 37° C. with 5% CO2 for 72 hours. After 72 hours, Alamar Blue (Invitrogen) was added to the Hep G2 cells at a final concentration of 0.5× and plates were incubated at 37° C. for 4 hours. Fluorescence was measured at Ex560 nm/Em590 nm and corrected for background from the medium. All assays were performed in technical triplicates and in at least two biological replicates. The IC50 value was defined as the concentration that inhibits cell proliferation by 50% of the untreated control cells.

Zebrafish = Zebrafish dose-response experiments; format: in vivo, Danio rerio
Protocol: Zebrafish were maintained and handled under the guidance and approval of the Canadian Council on Animal Care and the Hospital for Sick Children Laboratory Animal Services. Dose-response assays were performed using zebrafish (Danio rerio) at 3 days post-fertilization. Three wild-type (TLAB) embryos were analyzed in each well of a 24-well plate containing 1 mL of E3 medium (5 mM NaCl, 0.17 mM KCl, 0.33 mM CaCl2, 0.33 mM MgSO4). Test compounds were added to each well to reach final concentrations of 45 μM, 15 μM, and 5 μM (0.5% v/v DMSO), as well as a DMSO control well. The viability of the fish was assessed after 3 days of test compound exposure using a Zeiss standard dissection microscope.

[1] = replicate 1, read-out: Replicate 1 % Immobile
[2] = replicate 2, read-out: Replicate 2 % Immobile
[3] = Caenorhabditis elegans, 72 h, L1 worms, 3 days at 20° C., lowest concentration at which at least 20% of worms die, read-out: Minimum Lethal Concentration
[4] = Caenorhabditis elegans, 72 h, L1 worms, 3 days at 20° C., same values in ppm, read-out: Minimum Lethal Concentration (ppm)
[5] = average of the two replicates, read-out: Average % Immobile

| SMILES | pest or weed control at 45 µM (M. chitwoodi J2 larvae) | Number of Hatched Eggs (M. hapla eggs) | Number of Hatched Eggs z-score (M. hapla eggs) | Replicate 1 z-score (M. incognita J2 larvae; replicate 1) | Replicate 2 z-score (M. incognita J2 larvae; replicate 2) | pest or weed control at 45 µM (M. incognita J2 larvae; [1]) | pest or weed control at 45 µM (M. incognita J2 larvae; [2]) | minimal effective concentration (C. elegans; [3]) | minimal effective concentration (C. elegans; [4]) | pest or weed control at 45 µM (M. incognita) | Normalized root mass (relative to DMSO control) (tomato plants) | pest or weed control at 45 µM (M. incognita J2 larvae; [5]) | further results |
| --- | --- | --- | --- | --- | --- | --- | --- | --- | --- | --- | --- | --- | --- |
| Clc1ccc(-c2cn3ccoc3n2)cc1 [I-47, 6-(4-chlorophenyl)imidazo[2,1-b]oxazole] | 62.7% | 1 | [4.30] | [14.96] | [15.52] | 95.9% | 95.6% | 50 µM | 10.9 µg/mL |  |  |  |  |
| CCc1ccc(-c2cn3cc(C)sc3n2)cc1 [I-10] |  |  |  |  |  |  |  | 6.25 µM | 1.5 µg/mL | 18.5% | 1.30 |  | % effectiveness at inhibiting reproduction of M. chitwoodi (M. chitwoodi): 63.7% |
| Cc1c(-c2ccc(F)cc2)nc2sccn12 [I-13] | 32.4% |  |  | [2.58] | [2.14] | 35.3% | 21.6% | > 100 µM | > 23.2 µg/mL | 0% | 1.12 | 28.4% |  |
| Cc1c(-c2ccccc2)nc2sccn12 [I-1] | 48.2% |  |  |  |  |  |  | > 100 µM | > 21.4 µg/mL |  |  |  |  |
| c1ccc(-c2noc(-c3cccs3)n2)cc1 [tioxazafen, reference compound] |  | 1 | [4.30] | [14.82] | [21.99] |  |  |  |  |  | 1.09 |  | % effectiveness at inhibiting reproduction of M. incognita (M. incognita): 43.7%; HepG2 IC50 (HepG2 cells): relatively inactive; IC50 (HepG2 cells): > 100 µM; % Immobile (M. chitwoodi J2 larvae; 45 μM): 42.7%; Average % Immobile (M. incognita J2 larvae; average of the two replicates): 100.00%; Replicate 1 % Immobile (M. incognita J2 larvae; replicate 1): 100.00%; Replicate 2 % Immobile (M. incognita J2 larvae; replicate 2): 100.00%; minimal effective concentration (C. elegans; L1 worms, 3 days at 20° C., lowest concentration at which at least 20% of worms die, read-out: Minimum Lethal Concentration): 3.125 µM; Minimum Lethal Concentration (ppm) (C. elegans; L1 worms, 3 days at 20° C., same values in ppm): 0.7 ppm; times more potent at killing C. elegans than compound I-46 (C. elegans; tioxazafen versus compound I-46, minimum lethal concentration): 32; Zebrafish LC100 (Zebrafish; 3 days exposure, lowest concentration at which all of the fish are dead, 45, 15, 5 μM tested): 15 µM; LC50 (Zebrafish; bound inferred from the tested concentrations, 3 days exposure): ≤ 15 µM; times more potent at killing fish than compound I-46 (Zebrafish; tioxazafen versus compound I-46, zebrafish): at least 3 |
| c1cncc(-c2cn3ccsc3n2)c1 [I-45] | 13.8% |  |  | [1.92] | [3.20] | 32.1% | 27.4% | > 100 µM | > 20.1 µg/mL |  |  | 29.8% |  |
| Cc1c(-c2ccc(Cl)cc2)nc2sccn12 [I-22] | > 75% | 1 | [4.30] | [7.55] | [4.26] | 59.6% | 33.3% | 12.5 µM | 3.1 µg/mL |  |  | 46.5% |  |
| CCc1ccc(-c2cn3ccsc3n2)cc1 [I-7] | > 75% | 1 | [4.30] | [10.58] | [3.55] | 74.5% | 29.4% | 50 µM | 11.4 µg/mL |  |  | 51.9% | % effectiveness at inhibiting reproduction of M. chitwoodi (M. chitwoodi): 59.3% |
| Cc1c(-c2ccc(Br)cc2)nc2sccn12 [I-33] | 58.1% |  |  | [1.78] | [4.16] | 31.4% | 32.8% | 12.5 µM | 3.7 µg/mL | 7.9% | 1.45 | 32.1% |  |
